Entries after “also recorded” stand apart in the source; their conditions may differ. Structures can show the parent of a compound that is named as a salt. Where two headings read alike, the source gives them in different places.
Legend:
[1] = tested on: serum calcium; assay: Effects of acid and salt form of diphosphonates in hypercalceamic rats; assay type: in vivo, male Wistar rats; conditions: for Serum Calcium (% control values): 15% NS limit does not apply; for decrease of serum calcium: about 50 mg/kg/day in drinking water, 15 days
Protocol: Effects of acid and salt form of diphosphonates of formula (I) in hypercalceamic rats
To verify this activity the acid form of compound 4 and is monosodium salt counterpart (compound 10) were also tested by using a protol similar to the one described by Potokar (see above). Briefly, groups of 4 male Wistar rats received acid or salt form of compound 4 as 0.05% solution in drinking water corresponding to about 50 mg/kg/day. The rats were treated with the compounds for 15 days.
Serum calcium was measured in hypercalceamic rats.

[2] = tested on: tissue cholesterol; assay: Effects in cholesterol fed rats (serum, liver and aorta lipids); assay type: in vivo; conditions: for change in vivo at 200 mg/kg/day: Rattus norvegicus; for liver total lipids and/or liver cholesterol: cholesterol fed rats
Protocol: Effects of diphosphonates of formula (I) in cholesterol fed rats
In order to increase tissue cholesterol, especially liver, rats were fed a high fat-high cholesterol diet for 10 days to 3 months, with the following diet composition: casein 20%, butter 37%, cellulose 9.1%, dextrose 18,9%, cholesterol 4.5%, sodium cholate 1.8%, minerals 7.3%, vitamins 1%, choline 0.4%.
The rats were then fed normal food and were treated for 10 days to 3 months with different compounds (200 mg/kg/day). Serum parameters described above were measured. Liver and aorta lipids were extracted according to J. Folch et al (J. Biochem. 226, 497, 1957). Total lipids were determined by the sulfophosphovanillic reaction (see N. Zolner and K. Kirsch, Z. Ges. exp. Med. 135, 545, 1962) and cholesterol by the Liebermann-Burchard reaction or appropriate enzymatic reaction.
(§1) In above Table IV, results are given as % control values. Except for serum calcium, values which differ from control values by less than 15% are considered as non significant (NS).
Serum free fatty acids, triglycerides and phospholipids were measured in normal rats (N) and rats previously fed a cholesterol diet for 10 days (C.F.)
(§2) Serum α/β cholesterol, total lipids and cholesterol of liver and aorta were determined in normal rats (N) and rats which had previously been fed on high cholesterol diet (C.F.)

[3] = tested on: lipid metabolism; assay: Effects of diphosphonates on lipid metabolism in normal rats (serum lipids, α/β cholesterol); assay type: in vivo, male Wistar rats; conditions: for change in vivo at 200 mg/kg/day: Rattus norvegicus, po; for increased HDL lipids, especially HDL cholesterol: normal rats
Protocol: Effects of diphosphonates of formula (I) on lipid metabolism in normal rats Groups of 4 to 5 normal male Wistar rats, weighing about 200 g were treated with diphosphonates (200 mg/kg/day) p.o. for 4 to 21 days. Water soluble compounds were given in solution in 24 mM bicarbonate buffer. Lipid soluble compounds were given in corn oil. The rats were weighed, sacrificed by decapitation (under light ether anesthesia) after overnight fasting. Blood was collected and serum used for analysis. The following blood parameters reflecting changes in lipid metabolism are reported: […]
free fatty acids measured according to W. G. Duncombe (Clin. Acta 9, 122, 1964) triglycerides enzymatic method (Boehringer Mannheim Kit 126 012) phospholipids: molybdate/vanadate reaction (Boehringer Mannheim Kit 124 974) β-lipoprotein cholesterol was measured after heparin, CaCl2 precipitation according to M. Burstein et al. (La Presse Medicale 43, 974, 1958) and to D. Watson (Clin. Chim. Acta 5, 637, 1960).
as §1
as §2, with “Serum free fatty acids, triglycerides and phospholipids were measured in normal rats (N) and rats previously fed a cholesterol diet for 10 days (C.F.) Serum” for “Serum”

[4] = tested on: HDL cholesterol; conditions: rats; Day et al., Muller and Cortesi; cited from earlier work
[5] = tested on: alpha/beta cholesterol ratio; assay: Comparison of clofibrate, gemfibrozil and fenofibrate to compound 16: alpha/beta cholesterol ratio in normal Wistar rats; assay type: in vivo; conditions: 100 mg/kg for 10 days, n = 5
Protocol: It should be noted that these diphosphonate compounds are different and novel in comparison to the classical hypolipidemic compounds as illustrated in Table V. The diphosphonate ester used for comparison was the only one to increase the alpha/beta cholesterol ratio in control rats.
Each drug was administered at 100 mg/kg for 10 days

[6] = Oral LD50 toxicity; assay type: in vivo; conditions: in vivo; oral
Text: Following the extensive pharmacological screening of these compounds, using over 2000 animals, those showing the most potential were then subjected to toxicity testing for further selection relative to their activity/toxicity risk profiles
By way of LD50 (Lethal Dose 50) the methyl diphosphonates were discovered to have a significant lower degree of toxicity. […] This represents a significant six fold difference in toxicity.

[7] = tested on: aorta and kidney calcification; conditions: hypercalceamic animal model; cited from earlier work
[8] = cholesterol fed rats (C.F), 200 mg/kg/day, read-out: Liver Chol. (% control values)
[9] = cholesterol fed rats (C.F), 200 mg/kg/day, read-out: Liver Total Lipids (% control values)
[10] = cholesterol fed rats (C.F), 200 mg/kg/day
[11] = normal rats (N), 200 mg/kg/day p.o., read-out: Serum Chol. α/β (% control values)
[12] = normal rats (N), 200 mg/kg/day p.o., read-out: Serum Phospholipids (% control values)
[13] = normal rats (N), 200 mg/kg/day p.o., 200 mg/kg/day
[14] = normal rats (N), 200 mg/kg/day p.o., read-out: Serum Free Fatty Acids (% control values)
[15] = normal rats (N), 200 mg/kg/day p.o., read-out: Serum Triglycerides (% control values)
[16] = normal rats (N), 200 mg/kg/day p.o., monosodium salt, 200 mg/kg/day
[17] = normal rats (N), 200 mg/kg/day p.o.

SMILES	change in vivo at 200 mg/kg/day [2, 8]	change in vivo at 200 mg/kg/day [2, 9]	change in vivo at 200 mg/kg/day [3, 11]	change in vivo at 200 mg/kg/day [3, 12]	decreases in serum triglycerides ([3]; rats)	change in vivo at 200 mg/kg/day [3, 14]	change in vivo at 200 mg/kg/day [3, 15]	liver total lipids and/or liver cholesterol [2]	Serum Chol. α/β (% control values) [2, 10]	also measured
O=P(O)(O)C(O)(c1ccc(Cl)cc1)P(=O)(O)O [4 Acid, hydroxy (p-chlorophenyl) methylenediphosphonic acid]	< 15%	< 15%	< 15%	< 15%	Significant decreases	–	–	–	–	Serum Calcium (% control values) [1]: -20%; decrease of serum calcium ([1]; listed as acid form of compound 4): 20%; Aorta Chol. (% control values) [2, 10]: NS (Except for serum calcium, values which differ from control values by less than 15% are considered as non significant (NS)); Aorta Total Lipids (% control values) [2, 10]: NS (Except for serum calcium, values which differ from control values by less than 15% are considered as non significant (NS)); Serum Free Fatty Acids (% control values) [3, 13]: -17%; Serum Triglycerides (% control values) [3, 13]: -29%; property to change lipid metabolism / increase HDL ([3]; rats): do not have these properties
CCOC(=O)C(C)(C)Oc1ccc(Cl)cc1 [Clofibrate, reference compound]	< 15%	–	< 15%	-34%	–	< 15%	19%	–	–	HDL cholesterol [4]: decreases HDL cholesterol; decrease of plasma phospholipids ([3]; rats, comparison): 33.6%; decrease of α/β ratio ([3]; rats, comparison): 52.2%; alpha/beta Cholesterol Ratio [5]: 2.76 ± 0.40
COP(=O)(OC)C(O)(c1ccc(C(=O)c2ccc(Cl)cc2)cc1)P(=O)(OC)OC [Compound 9, Tetramethyl 1[4(4'-chlorobenzoyl)-phenyl]methane 1-hydroxy 1,1-diphosphonate]	< 15%	-25%	–	< 15%	Significant decreases	-38%	-16%	decreased significantly	+51%	Aorta Chol. (% control values) [2, 10]: -39%; Aorta Total Lipids (% control values) [2, 10]: NS (Except for serum calcium, values which differ from control values by less than 15% are considered as non significant (NS)); Serum Free Fatty Acids (% control values) [2, 10]: -52%; Serum Phospholipids (% control values) [2, 10]: +36%; Serum Triglycerides (% control values) [2, 10]: -17%; increased HDL lipids, especially HDL cholesterol [3]: observed most dramatically; α-cholesterol/β-cholesterol ratio / lipoprotein cholesterol ([3]; rats): highly significant activity
O=P(O)(O)C(O)(c1ccc(Cl)cc1)P(=O)(O)O [Compound 10, 1-hydroxy 1 (p-chlorophenyl)methane 1,1-diphosphonic acid, monosodium salt]	–	–	–	–	–	–	–	–	–	Serum Calcium (% control values) ([1]; monosodium salt): -14%; decrease of serum calcium ([1]; listed as salt form of compound 4, monosodium salt): 14%; Serum Free Fatty Acids (% control values) [3, 16]: -27%; Serum Triglycerides (% control values) [3, 16]: -17%
COP(=O)(OC)OC(c1ccccc1)P(=O)(OC)OC (stereo not drawn) [Compound 13, dimethyl α(dimethoxyphosphinyl) benzylphosphate]	–	–	–	–	–	–	–	decreased significantly	+25%	Liver Chol. (% control values) [2, 10]: -51%; Liver Total Lipids (% control values) [2, 10]: -18%; Serum Free Fatty Acids (% control values) [3, 17]: -21%; Serum Phospholipids (% control values) [3, 17]: +21%; Serum Triglycerides (% control values) [3, 17]: +32%; increase in serum phospholipid ([3]; rats): found to increase
COP(=O)(OC)OC(c1ccc(C)cc1)P(=O)(OC)OC (stereo not shown) [Compound 18]	–	< 15%	< 15%	< 15%	–	–	-33%	–	–	–
COP(=O)(OC)OC(C(C)(C)c1ccc(Cl)cc1)P(=O)(OC)OC (stereo not shown) [Compound 21, Dimethyl 1-(dimethoxyphosphinyl) 2,2-dimethyl 2(p-chlorophenyl) ethylphosphate]	-46%	-36%	< 15%	16%	Significant decreases	–	-38%	decreased significantly	-32%	Serum Phospholipids (% control values) [2, 10]: +24%; Serum Triglycerides (% control values) [2, 10]: +28%; increase in serum phospholipid ([3]; rats): found to increase
CCOP(=O)(OCC)OC(c1ccc(Cl)cc1)P(=O)(OCC)OCC (stereo not shown) [Compound 24]	–	–	< 15%	< 15%	–	–	< 15%	–	–	LD50 [6]: 547 mg/kg
CCOP(=O)(OCC)C(Cc1ccc(Cl)cc1)P(=O)(OCC)OCC [Compound 27]	< 15%	< 15%	–	< 15%	Significant decreases	-44%	-16%	decreased significantly	-35%	Aorta Chol. (% control values) [2, 10]: NS (Except for serum calcium, values which differ from control values by less than 15% are considered as non significant (NS)); Aorta Total Lipids (% control values) [2, 10]: -60%; Serum Free Fatty Acids (% control values) [2, 10]: -65%; Serum Phospholipids (% control values) [2, 10]: NS (Except for serum calcium, values which differ from control values by less than 15% are considered as non significant (NS)); Serum Triglycerides (% control values) [2, 10]: -24%
COP(=O)(OC)C(Cc1ccc(Cl)cc1)P(=O)(OC)OC [Compound 35]	-19%	< 15%	75%	51%	–	-44%	< 15%	decreased significantly	–	increased HDL lipids, especially HDL cholesterol [3]: observed most dramatically; increase in serum phospholipid ([3]; rats): found to increase; also recorded: at least two fold the most active; α-cholesterol/β-cholesterol ratio / lipoprotein cholesterol ([3]; rats): highly significant activity
CC(C)OC(=O)C(C)(C)Oc1ccc(C(=O)c2ccc(Cl)cc2)cc1 [Fenofibrate]	–	–	–	–	–	–	–	–	–	alpha/beta Cholesterol Ratio [5]: 1.19 ± 0.20
Cc1ccc(C)c(OCCCC(C)(C)C(=O)O)c1 [Gemfibrozil]	–	–	–	–	–	–	–	–	–	alpha/beta Cholesterol Ratio [5]: 5.33 ± 0.31
O=P(O)(O)C(Cl)(Cl)P(=O)(O)O [dichloromethylene diphosphonate]	–	–	–	–	–	–	–	–	–	aorta and kidney calcification [7]: inhibit aorta and kidney calcification; vitamin D-induced rise in plasma calcium [7]: prevent the vitamin D-induced rise in plasma calcium

Source: patent publication US4416877A, “Anti-atherosclerotic pharmaceutical compositions containing diphosphonate compounds” (priority 1979, dated 1983)
